Tested on: plasma metabolites
Assay: Metabolomic analysis of plasma
Assay type: in vivo, mice
Experimental: Metabolomic analyses were conducted at Metabolon (Durham, NC, USA) as described previously. For statistical analyses and data display, any missing values were assumed to be below the limits of detection and imputed with the compound minimum (minimum value imputation). An estimate of the FDR (Q value) was calculated to take into account the multiple comparisons that normally occur in metabolomics-based studies, with Q < 0.05 used as an indication of high confidence in a result. The MetaboAnalyst tool was used to generate heat maps.

[1] = AD mice fed CAD-31 200 ppm 3 months vs AD
[2] = WT control mice fed CAD-31 200 ppm 3 months vs control

Cc1ccc(N(/N=C/c2cccc(OC(F)(F)F)c2)C(=O)C(F)(F)F)c(C)c1 [CAD-31]
1,2-dipalmitoyl-GPC (16:0/16:0) Fold Change AD+31/AD [1]: 1.12
1-arachidonoyl-GPC (20:4n6)* Fold Change AD+31/AD [1]: 1.17
1-myristoylglycerol (14:0) Fold Change AD+31/AD [1]: 0.94
1-oleoylglycerol (18:1) Fold Change AD+31/AD [1]: 1.17
1-palmitoyl-2-arachidonoyl-GPC (16:0/20:4n6) Fold Change AD+31/AD [1]: 1.19
1-palmitoyl-2-stearoyl-GPC (16:0/18:0) Fold Change AD+31/AD [1]: 1.23
1-stearoyl-GPE (18:0) Fold Change AD+31/AD [1]: 1.22
2-palmitoylglycerol (16:0) Fold Change AD+31/AD [1]: 1.22
3-acetylphenol sulfate Fold Change AD+31/AD [1]: 0.59
3-ethylphenylsulfate Fold Change AD+31/AD [1]: 2.39
3-hydroxy-3-methylglutarate Fold Change AD+31/AD [1]: 1.53
3-hydroxybutyrate (BHBA) Fold Change AD+31/AD [1]: 1.21
3-hydroxypyridine sulfate Fold Change AD+31/AD [1]: 1.07
3-indoxyl sulfate Fold Change AD+31/AD [1]: 1.15
4-hydroxyhippurate Fold Change AD+31/AD [1]: 0.73
4-hydroxyphenylpyruvate Fold Change AD+31/AD [1]: 1.05
5-hydroxyindoleacetate Fold Change AD+31/AD [1]: 1.01
5-oxoproline Fold Change AD+31/AD [1]: 1.02
7-ketodeoxycholate Fold Change AD+31/AD [1]: 0.18
9,10-DiHOME Fold Change AD+31/AD [1]: 0.99
10-heptadecenoate (17:1n7) Fold Change AD+31/AD [1]: 0.84
10-nonadecenoate (19:1n9) Fold Change AD+31/AD [1]: 0.87
10-undecenoate (11:1n1) Fold Change AD+31/AD [1]: 0.41
15-methylpalmitate Fold Change AD+31/AD [1]: 0.68
17-methylstearate Fold Change AD+31/AD [1]: 0.84
N2-acetyllysine Fold Change AD+31/AD [1]: 1.12
N-acetyl-3-methylhistidine* Fold Change AD+31/AD [1]: 0.86
N-acetylmethionine Fold Change AD+31/AD [1]: 1.14
N-acetylphenylalanine Fold Change AD+31/AD [1]: 1.1
N-acetylserine Fold Change AD+31/AD [1]: 1.11
N-carbamoylaspartate Fold Change AD+31/AD [1]: 1.97
N-delta-acetylornithine Fold Change AD+31/AD [1]: 1.22
N-palmitoyl-sphinganine (d18:0/16:0) Fold Change AD+31/AD [1]: 1.49
N-stearoyl-sphingosine (d18:1/18:0)* Fold Change AD+31/AD [1]: 1.5
acetylcarnitine Fold Change AD+31/AD [1]: 0.97
alpha-tocopherol Fold Change AD+31/AD [1]: 1.29
arabonate/xylonate Fold Change AD+31/AD [1]: 1.47
asparagine Fold Change AD+31/AD [1]: 0.97
beta-muricholate Fold Change AD+31/AD [1]: 0.41
caffeic acid sulfate Fold Change AD+31/AD [1]: 1.19
carnosine Fold Change AD+31/AD [1]: 0.68
chenodeoxycholate Fold Change AD+31/AD [1]: 0.26
choline phosphate Fold Change AD+31/AD [1]: 1.11
creatine Fold Change AD+31/AD [1]: 1.02
dihydroorotate Fold Change AD+31/AD [1]: 1.19
dopamine sulfate (2) Fold Change AD+31/AD [1]: 2.01
equol glucuronide Fold Change AD+31/AD [1]: 0.22
ergothioneine Fold Change AD+31/AD [1]: 0.44
erythritol Fold Change AD+31/AD [1]: 1.1
erythronate* Fold Change AD+31/AD [1]: 1.14
gamma-glutamylglutamate Fold Change AD+31/AD [1]: 0.97
gamma-glutamylglutamine Fold Change AD+31/AD [1]: 0.99
gamma-glutamylleucine Fold Change AD+31/AD [1]: 1.02
gamma-glutamylmethionine Fold Change AD+31/AD [1]: 1.04
gamma-glutamylphenylalanine Fold Change AD+31/AD [1]: 0.97
gamma-glutamylthreonine Fold Change AD+31/AD [1]: 1.03
gamma-glutamyltryptophan Fold Change AD+31/AD [1]: 0.78
gamma-glutamyltyrosine Fold Change AD+31/AD [1]: 0.92
glucuronate Fold Change AD+31/AD [1]: 1.18
glutamate Fold Change AD+31/AD [1]: 0.99
glutathione, oxidized (GSSG) Fold Change AD+31/AD [1]: 1.46
glycosyl-N-palmitoyl-sphingosine (d18:1/16:0) Fold Change AD+31/AD [1]: 1.29
glycosyl-N-stearoyl-sphingosine (d18:1/18:0) Fold Change AD+31/AD [1]: 1.42
gulonate* Fold Change AD+31/AD [1]: 1.59
hexanoylglycine Fold Change AD+31/AD [1]: 1.03
indoleacetylglycine Fold Change AD+31/AD [1]: 0.89
isobutyrylcarnitine Fold Change AD+31/AD [1]: 2.26
linoleate (18:2n6) Fold Change AD+31/AD [1]: 0.98
margarate (17:0) Fold Change AD+31/AD [1]: 0.9
methionine sulfoxide Fold Change AD+31/AD [1]: 1.26
methylmalonate (MMA) Fold Change AD+31/AD [1]: 1.15
o-cresol sulfate Fold Change AD+31/AD [1]: 1.63
oleoylcarnitine Fold Change AD+31/AD [1]: 0.94
palmitoleoylcarnitine* Fold Change AD+31/AD [1]: 0.97
palmitoyl dihydrosphingomyelin (d18:0/16:0)* Fold Change AD+31/AD [1]: 1.32
palmitoyl sphingomyelin (d18:1/16:0) Fold Change AD+31/AD [1]: 1.22
palmitoyl-palmitoyl-glycerol (16:0/16:0) [1]* Fold Change AD+31/AD [1]: 1.17
pentadecanoate (15:0) Fold Change AD+31/AD [1]: 0.95
phenol sulfate Fold Change AD+31/AD [1]: 1.03
phenylpropionylglycine Fold Change AD+31/AD [1]: 2.89
phosphoethanolamine Fold Change AD+31/AD [1]: 1.05
pyridoxal Fold Change AD+31/AD [1]: 1.22
pyridoxate Fold Change AD+31/AD [1]: 1.49
pyruvate Fold Change AD+31/AD [1]: 1.04
ribonate Fold Change AD+31/AD [1]: 1.53
sphinganine-1-phosphate Fold Change AD+31/AD [1]: 1.45
sphingosine Fold Change AD+31/AD [1]: 1.35
stearidonate (18:4n3) Fold Change AD+31/AD [1]: 0.87
suberate (octanedioate) Fold Change AD+31/AD [1]: 1.33
sucrose Fold Change AD+31/AD [1]: 2.83
tartronate (hydroxymalonate) Fold Change AD+31/AD [1]: 0.99
taurine Fold Change AD+31/AD [1]: 0.91
threonine Fold Change AD+31/AD [1]: 1.08
tryptophan Fold Change AD+31/AD [1]: 0.91
ursodeoxycholate Fold Change AD+31/AD [1]: 0.23
1,2-dipalmitoyl-GPC (16:0/16:0) Fold Change C+31/C [2]: 1.26
1-arachidonoyl-GPC (20:4n6)* Fold Change C+31/C [2]: 1.04
1-myristoylglycerol (14:0) Fold Change C+31/C [2]: 0.59
1-oleoylglycerol (18:1) Fold Change C+31/C [2]: 0.64
1-palmitoyl-2-arachidonoyl-GPC (16:0/20:4n6) Fold Change C+31/C [2]: 1.11
1-palmitoyl-2-stearoyl-GPC (16:0/18:0) Fold Change C+31/C [2]: 1.1
1-stearoyl-GPE (18:0) Fold Change C+31/C [2]: 1.01
2-palmitoylglycerol (16:0) Fold Change C+31/C [2]: 0.79
3-acetylphenol sulfate Fold Change C+31/C [2]: 0.21
3-ethylphenylsulfate Fold Change C+31/C [2]: 2.27
3-hydroxy-3-methylglutarate Fold Change C+31/C [2]: 0.99
3-hydroxybutyrate (BHBA) Fold Change C+31/C [2]: 1.83
3-hydroxypyridine sulfate Fold Change C+31/C [2]: 0.72
3-indoxyl sulfate Fold Change C+31/C [2]: 0.63
4-hydroxyhippurate Fold Change C+31/C [2]: 0.42
4-hydroxyphenylpyruvate Fold Change C+31/C [2]: 1.65
5-hydroxyindoleacetate Fold Change C+31/C [2]: 0.83
5-oxoproline Fold Change C+31/C [2]: 1.27
7-ketodeoxycholate Fold Change C+31/C [2]: 1.33
9,10-DiHOME Fold Change C+31/C [2]: 0.65
10-heptadecenoate (17:1n7) Fold Change C+31/C [2]: 0.51
10-nonadecenoate (19:1n9) Fold Change C+31/C [2]: 0.6
10-undecenoate (11:1n1) Fold Change C+31/C [2]: 0.75
15-methylpalmitate Fold Change C+31/C [2]: 0.52
17-methylstearate Fold Change C+31/C [2]: 0.62
N2-acetyllysine Fold Change C+31/C [2]: 0.71
N-acetyl-3-methylhistidine* Fold Change C+31/C [2]: 0.84
N-acetylmethionine Fold Change C+31/C [2]: 1.6
N-acetylphenylalanine Fold Change C+31/C [2]: 1.41
N-acetylserine Fold Change C+31/C [2]: 1.09
N-carbamoylaspartate Fold Change C+31/C [2]: 0.54
N-delta-acetylornithine Fold Change C+31/C [2]: 1.42
N-palmitoyl-sphinganine (d18:0/16:0) Fold Change C+31/C [2]: 1.08
N-stearoyl-sphingosine (d18:1/18:0)* Fold Change C+31/C [2]: 1.12
acetylcarnitine Fold Change C+31/C [2]: 1.65
alpha-tocopherol Fold Change C+31/C [2]: 1.05
arabonate/xylonate Fold Change C+31/C [2]: 0.83
asparagine Fold Change C+31/C [2]: 1.48
beta-muricholate Fold Change C+31/C [2]: 1.78
caffeic acid sulfate Fold Change C+31/C [2]: 2.12
carnosine Fold Change C+31/C [2]: 0.62
chenodeoxycholate Fold Change C+31/C [2]: 0.67
choline phosphate Fold Change C+31/C [2]: 1.53
creatine Fold Change C+31/C [2]: 1.23
dihydroorotate Fold Change C+31/C [2]: 2.98
dopamine sulfate (2) Fold Change C+31/C [2]: 0.94
equol glucuronide Fold Change C+31/C [2]: 0.18
ergothioneine Fold Change C+31/C [2]: 0.68
erythritol Fold Change C+31/C [2]: 1.06
erythronate* Fold Change C+31/C [2]: 1.02
gamma-glutamylglutamate Fold Change C+31/C [2]: 2.69
gamma-glutamylglutamine Fold Change C+31/C [2]: 1.94
gamma-glutamylleucine Fold Change C+31/C [2]: 1.86
gamma-glutamylmethionine Fold Change C+31/C [2]: 2.24
gamma-glutamylphenylalanine Fold Change C+31/C [2]: 1.84
gamma-glutamylthreonine Fold Change C+31/C [2]: 2.07
gamma-glutamyltryptophan Fold Change C+31/C [2]: 1.81
gamma-glutamyltyrosine Fold Change C+31/C [2]: 2.33
glucuronate Fold Change C+31/C [2]: 1.04
glutamate Fold Change C+31/C [2]: 1.71
glutathione, oxidized (GSSG) Fold Change C+31/C [2]: 2.09
glycosyl-N-palmitoyl-sphingosine (d18:1/16:0) Fold Change C+31/C [2]: 1.25
glycosyl-N-stearoyl-sphingosine (d18:1/18:0) Fold Change C+31/C [2]: 0.76
gulonate* Fold Change C+31/C [2]: 1.01
hexanoylglycine Fold Change C+31/C [2]: 2.77
indoleacetylglycine Fold Change C+31/C [2]: 0.57
isobutyrylcarnitine Fold Change C+31/C [2]: 5.46
linoleate (18:2n6) Fold Change C+31/C [2]: 0.67
margarate (17:0) Fold Change C+31/C [2]: 0.6
methionine sulfoxide Fold Change C+31/C [2]: 1.52
methylmalonate (MMA) Fold Change C+31/C [2]: 0.87
o-cresol sulfate Fold Change C+31/C [2]: 0.93
oleoylcarnitine Fold Change C+31/C [2]: 1.42
palmitoleoylcarnitine* Fold Change C+31/C [2]: 1.81
palmitoyl dihydrosphingomyelin (d18:0/16:0)* Fold Change C+31/C [2]: 1.09
palmitoyl sphingomyelin (d18:1/16:0) Fold Change C+31/C [2]: 1.05
palmitoyl-palmitoyl-glycerol (16:0/16:0) [1]* Fold Change C+31/C [2]: 0.51
pentadecanoate (15:0) Fold Change C+31/C [2]: 0.71
phenol sulfate Fold Change C+31/C [2]: 0.59
phenylpropionylglycine Fold Change C+31/C [2]: 3.88
phosphoethanolamine Fold Change C+31/C [2]: 1.64
pyridoxal Fold Change C+31/C [2]: 1.54
pyridoxate Fold Change C+31/C [2]: 1.33
pyruvate Fold Change C+31/C [2]: 1.2
ribonate Fold Change C+31/C [2]: 1.07
sphinganine-1-phosphate Fold Change C+31/C [2]: 2.52
sphingosine Fold Change C+31/C [2]: 1.14
stearidonate (18:4n3) Fold Change C+31/C [2]: 0.65
suberate (octanedioate) Fold Change C+31/C [2]: 1.17
sucrose Fold Change C+31/C [2]: 2.7
tartronate (hydroxymalonate) Fold Change C+31/C [2]: 1.47
taurine Fold Change C+31/C [2]: 1.26
threonine Fold Change C+31/C [2]: 1.42
tryptophan Fold Change C+31/C [2]: 1.12
ursodeoxycholate Fold Change C+31/C [2]: 0.49

From publication PMC5513091, “A novel Alzheimer’s disease drug candidate targeting inflammation and fatty acid metabolism” (Alzheimer's Research & Therapy, 2017)
